Where two headings read alike, the source gives them in different places.
How the values were obtained:
Hemophilus influenzae = experiment: Agar-dilution MIC; format: cell-based; details: Table 17, 24 hours
Bacteroides fragilis = experiment: Agar-dilution MIC (anaerobes); format: cell-based; details: Table 14
Excerpt: (§1) The agar-dilution procedure described by the International Collaborative study (ICS) group was used to determine the minimum inhibitory concentrations (MIC's).

Bacteroides corrodens = experiment: Agar-dilution MIC (anaerobes); format: cell-based; details: Table 14; Bacteroides corrodens 1874
[1] = Electrometric titration (pKa); format: physicochemical; details: electrometric titration in 66% dimethylformamide in water
[2] = tested on: Peptostreptococcus intermedius; experiment: Agar-dilution MIC (anaerobes); format: cell-based; details: Table 14; Peptostreptococcus intermedius 1264
S. pneumoniae = experiment: Experimental bacterial infection in mice, subcutaneous ED50; format: in vivo; details: two doses subcutaneously
Method: (§2) All of the A41030 factors tested have shown in vivo antimicrobial activity against experimental bacterial infections. When two doses of test compound were administered subcutaneously to mice in illustrative infections, the activity observed is measured as an ED50 value [effective dose in mg./kg. to protect fifty percent of the test animals: See Warren Wick, et al., J. Bacteriol. 81, 233-235 (1961)].

Staph. aureus = experiment: as above; format: in vivo; details: two doses subcutaneously
Method: as §2

S. pyogenes = experiment: as above; format: in vivo; details: two doses subcutaneously
Method: as §2

Klebsiella pneumoniae = experiment: Agar-dilution MIC; format: cell-based; details: Table 17; 24 hours; Klebsiella pneumoniae X26
Salmonella typhi = experiment: Agar-dilution MIC; format: cell-based; details: Table 17, 24 hours
Eubacterium aerofaciens = experiment: Agar-dilution MIC (anaerobes); format: cell-based; details: Table 14; Eubacterium aerofaciens 1235
Solubility in solvents = format: physicochemical; details: solvents as named
Excerpt: The seven antibiotic factors are recovered from the fermentation and are obtained as a mixture, the A41030 complex. It will be recognized that the ratio of the factors in the A41030 complex will vary, depending upon the fermentation conditions used. The individual factors […], and G are separated and isolated as individual compounds, as hereinafter described.

Staphylococcus aureus = experiment: Agar-dilution MIC; format: cell-based
Escherichia coli = experiment: Agar-dilution MIC; format: cell-based; details: Table 17; 24 hours; Escherichia coli TEM
[3] = tested on: Peptococcus asaccharolyticus; experiment: Agar-dilution MIC (anaerobes); format: cell-based; details: Table 14; Peptococcus asaccharolyticus 1302
Streptococcus pyogenes = experiment: Agar-dilution MIC; format: cell-based; details: Table 17; 24 hours; Streptococcus pyogenes C203
Excerpt: as §1

[4] = tested on: Staphylococcus epidermidis; experiment: Agar-dilution MIC; format: cell-based; details: Table 17, 24 hours
Excerpt: as §1

Streptococcus pneumoniae = experiment: Agar-dilution MIC; format: cell-based; details: Table 17; 24 hours; Streptococcus pneumoniae Park I
Excerpt: as §1

[5] = tested on: Streptococcus sp. (Group D); experiment: Agar-dilution MIC; format: cell-based; details: Table 17, 24 hours
Excerpt: as §1

Clostridium septicum = experiment: Agar-dilution MIC (anaerobes); format: cell-based; details: Table 14; Clostridium septicum 1128
Fusobacterium symbiosum = experiment: Agar-dilution MIC (anaerobes); format: cell-based; details: Table 14; Fusobacterium symbiosum 1470
Bacteroides vulgatis = experiment: Agar-dilution MIC (anaerobes); format: cell-based; details: Table 14; Bacteroides vulgatis 1211
[6] = tested on: Fusobacterium necrophorum; experiment: Agar-dilution MIC (anaerobes); format: cell-based; details: Table 14; Fusobacterium necrophorum 6054A
[7] = tested on: Peptostreptococcus anaerobius; experiment: Agar-dilution MIC (anaerobes); format: cell-based; details: Table 14; Peptostreptococcus anaerobius 1428
Peptococcus prevoti = experiment: Agar-dilution MIC (anaerobes); format: cell-based; details: Table 14; Peptococcus prevoti 1281
Propionibacterium acnes = experiment: Agar-dilution MIC (anaerobes); format: cell-based; details: Table 14; Propionibacterium acnes 79
Excerpt: Antibiotic A41030 factors A, B and C have also been tested and found to be active against a genus of anaerobic bacteria identified as Propionibacterium acnes.

Clostridium difficile = format: cell-based
Excerpt: The A41030 antibiotic factors A, B, C, D, E, F, and G, are also active against a number of strains of Clostridium difficile, as determined by the agar-dilution method.

[8] = tested on: Bacteroides melaninogenicus; experiment: Agar-dilution MIC (anaerobes); format: cell-based; details: Table 14
Clostridium perfringens = format: cell-based; details: Table 14; Clostridium perfringens 81
B. thetaiotaomicron = format: cell-based; details: Table 14; Bacteroides thetalotaomicron 1438
Excerpt: as §1

Q: With A41030 factor D as the substance, how does the MIC (Hemophilus influenzae; Haemophilus influenzae 76) read?
A: 8 µg/mL

Q: What about the MIC (Hemophilus influenzae; Haemophilus influenzae C.L.) of the same substance?
A: 8 µg/mL

Q: What about the MIC (Bacteroides fragilis; Bacteroides fragilis 111) of the same substance?
A: 32 µg/mL

Q: And the MIC (Bacteroides fragilis; Bacteroides fragilis 1877)?
A: 32 µg/mL

Q: What about the MIC (Bacteroides fragilis; Bacteroides fragilis 1936B) of the same substance?
A: 32 µg/mL

Q: And the MIC (Bacteroides corrodens)?
A: 32 µg/mL

Q: And the “pKa, first titratable group” value [1]?
A: about 5.5

Q: And the “pKa, second titratable group” value [1]?
A: ~7.6

Q: And the MIC [2]?
A: 1.0 µg/mL

Q: What about the ED50 (S. pneumoniae) of the same substance?
A: 2.21 mg/kg

Q: What about the ED50 (Staph. aureus) of the same substance?
A: 0.339 mg/kg

Q: What about the ED50 (S. pyogenes) of the same substance?
A: 3.24 mg/kg

Q: What about the MIC (Klebsiella pneumoniae) of the same substance?
A: 128 µg/mL

Q: What about the MIC (Salmonella typhi; Salmonella typhi 1335) of the same substance?
A: > 128 µg/mL

Q: What about the MIC (Salmonella typhi; Salmonella typhi X514) of the same substance?
A: > 128 µg/mL

Q: What about the MIC (Eubacterium aerofaciens) of the same substance?
A: 0.5 µg/mL

Q: What about the Solubility (Solubility in solvents) of the same substance?
A: soluble in the same solvents as factor A

Q: And the MIC (Staphylococcus aureus)?
A: 0.25 µg/mL

Q: And the MIC (Staphylococcus aureus; Table 17, 24 hours, Staphylococcus aureus S13E)?
A: 0.25 µg/mL

Q: What about the MIC (Staphylococcus aureus; Table 17, 24 hours, Staphylococcus aureus V41) of the same substance?
A: 0.25 µg/mL

Q: What about the MIC (Staphylococcus aureus; Table 17, 24 hours, Staphylococcus aureus X400) of the same substance?
A: 0.25 µg/mL

Q: What about the MIC (Escherichia coli) of the same substance?
A: 64 µg/mL

Q: What about the MIC [3] of the same substance?
A: ≤ 0.125 µg/mL

Q: And the MIC (Streptococcus pyogenes)?
A: 0.5 µg/mL

Q: And the MIC ([4]; Staphylococcus epidermidis EPI1)?
A: 0.25 µg/mL

Q: And the MIC ([4]; Staphylococcus epidermidis EPI2)?
A: 1 µg/mL

Q: What about the MIC (Streptococcus pneumoniae) of the same substance?
A: 0.5 µg/mL

Q: And the MIC ([5]; Streptococcus sp. Group D 9960)?
A: 1 µg/mL

Q: And the MIC ([5]; Streptococcus sp. Group D X66)?
A: 1 µg/mL

Q: And the MIC (Clostridium septicum)?
A: 0.25 µg/mL

Q: What about the MIC (Fusobacterium symbiosum) of the same substance?
A: 0.5 µg/mL

Q: And the MIC (Bacteroides vulgatis)?
A: 32 µg/mL

Q: What about the MIC [6] of the same substance?
A: ≤ 0.125 µg/mL

Q: And the MIC [7]?
A: 0.5 µg/mL

Q: What about the MIC (Peptococcus prevoti) of the same substance?
A: 0.25 µg/mL

Q: And the MIC (Propionibacterium acnes)?
A: 0.25 µg/mL

Q: What about the MIC (Clostridium difficile) of the same substance?
A: 0.5 µg/mL

Q: And the MIC (Clostridium difficile; Table 16, C. difficile 78)?
A: ≤ 0.25 µg/mL

Q: What about the MIC (Clostridium difficile; Table 16, C. difficile 107B) of the same substance?
A: ≤ 0.25 µg/mL

Q: What about the MIC (Clostridium difficile; Table 16, C. difficile 111F) of the same substance?
A: ≤ 0.25 µg/mL

Q: What about the MIC (Clostridium difficile; Table 16, C. difficile 1153) of the same substance?
A: 1.0 µg/mL

Q: What about the MIC (Clostridium difficile; Table 16, C. difficile 2634) of the same substance?
A: 0.5 µg/mL

Q: And the MIC (Clostridium difficile; Table 16, C. difficile 3424-5B)?
A: 0.5 µg/mL

Q: What about the MIC (Clostridium difficile; Table 16, C. difficile 3816) of the same substance?
A: 0.5 µg/mL

Q: What about the MIC (Clostridium difficile; Table 16, C. difficile 3950) of the same substance?
A: 0.5 µg/mL

Q: And the MIC (Clostridium difficile; Table 16, C. difficile 6890)?
A: 0.5 µg/mL

Q: What about the MIC (Clostridium difficile; Table 16, C. difficile 8484) of the same substance?
A: ≤ 0.25 µg/mL

Q: And the MIC (Clostridium difficile; Table 16, C. difficile A-194)?
A: ≤ 0.25 µg/mL

Q: And the MIC (Clostridium difficile; Table 16, C. difficile A-195)?
A: ≤ 0.25 µg/mL

Q: What about the MIC (Clostridium difficile; Table 16, C. difficile A-196) of the same substance?
A: 0.5 µg/mL

Q: And the MIC (Clostridium difficile; Table 16, C. difficile A-279)?
A: ≤ 0.25 µg/mL

Q: What about the MIC (Clostridium difficile; Table 16, C. difficile A-280) of the same substance?
A: ≤ 0.25 µg/mL

Q: What about the MIC (Clostridium difficile; Table 16, C. difficile A-281) of the same substance?
A: 0.5 µg/mL

Q: What about the MIC (Clostridium difficile; Table 16, C. difficile WAL-2112) of the same substance?
A: ≤ 0.25 µg/mL

Q: What about the MIC (Clostridium difficile; Table 16, C. difficile WAL-3657) of the same substance?
A: ≤ 0.25 µg/mL

Q: And the MIC (Clostridium difficile; Table 16, C. difficile WAL-4268)?
A: ≤ 0.25 µg/mL

Q: And the MIC ([8]; Bacteroides melaninogenicus 1856/28)?
A: > 64 µg/mL

Q: What about the MIC ([8]; Bacteroides melaninogenicus 2736) of the same substance?
A: 0.5 µg/mL

Q: And the MIC (Clostridium perfringens)?
A: 0.5 µg/mL

Q: What about the MIC (B. thetaiotaomicron) of the same substance?
A: 32 µg/mL

Source: patent US4559323A, “A41030 Antibiotics” (Eli Lilly and Company, priority 1984, dated 1985)
